Laboratory results published in ChEMBL document CHEMBL1777736, “New indole amide derivatives as potent CRTH2 receptor antagonists” (Bioorg Med Chem Lett, 2011).

Experiments:
in vivo [1] = details: Sprague-Dawley, rat, iv, 1 mg/kg
in vivo [2] = details: Sprague-Dawley, rat, po, 5 mg/kg
in vivo [3] = details: Sprague-Dawley, rat, iv, 1 mg/kg; remark: listed apart in the source
in vivo [4] = details: Sprague-Dawley, rat

Row | Compound | Vd (in vivo [1]) [L/kg] | bioavailability (in vivo [2]) [%] | clearance (in vivo [3]) [mL/min/kg] | half-life (in vivo [4]) [h]
1 | C[C@@H](C(=O)N(C)[C@@H]1CCc2c(CC(=O)O)c3ccccc3n2C1)c1ccc(F)cc1 | 0.36 | 73 | 1.1 | 4.7
2 | CN([C@@H]1CCc2c(CC(=O)O)c3ccccc3n2C1)S(=O)(=O)c1ccc(F)cc1 [MK-7246] | 1.1 | 138 |  | 
